Holding throughout (assay): NCI anticancer screen, dose series, 48 h
In test [1] the test system is RXF 393 renal.
Test [2] concerns CCRF-CEM leukemia.
For test [3], the system named is RPMI-8226 leukemia.
The subject of test [4] is MALME-3M melanoma.
For test [5], the system named is HT29 colon.
The test system of test [6] is NCI-H522 lung.
Test [7] has as its system SF-539 CNS.
The test system of test [8] is SW-620 colon.
Test [9] relates to OVCAR-5 ovarian.
Test [10] has as its system MDA-MB-435.
In test [11] the test system is SF-268 CNS.

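How tested: cells in 96-well plates exposed to compound for 48 hours at five concentrations. TGI denotes the concentration required for complete inhibition of growth.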

With `COC(=O)c1c(C)cccc1C1CN=NC12Cc1cccc(C)c1C2=O` (stereo not given), the TGI was greater than 100 µM in [1]; 71.1 µM in [2]; greater than 100 µM in test [3]; 87.2 µM in test [4]; greater than 100 µM in test [5]; 75.7 µM in test [6]. For the same compound, the TGI in test [7] is 44.5 µM; in [8], greater than 100 µM; in test [9] it was greater than 100 µM; in test [10], greater than 100 µM; in test [11] it was greater than 100 µM.
As for `Cc1cc(C)c(C#N)c(SC(=S)NC(=O)c2ccccc2)n1`, the TGI in [1], in [2], in test [3], in test [4], in test [5] and in test [6] was greater than 100 µM each time. The TGI in [7], in [8], in test [9], in test [10] and in [11] was greater than 100 µM each time.
On to `O=C(c1ccccc1)c1ccc2nc(-c3c(Cl)c(Cl)c(Cl)c(Cl)c3C(=O)Nc3ccco3)[nH]c2c1`, for which the TGI in test [1] was greater than 100 µM; in test [2] it was greater than 100 µM; in test [3], greater than 100 µM; in [5], greater than 100 µM; in test [6] it was 81.4 µM; in test [8], greater than 100 µM. Besides, the TGI in test [9] is greater than 100 µM; in test [10], 42.7 µM; in [11] it was greater than 100 µM.
In the case of `CC(=O)OCC1(CNc2nc(N)ncc2C#N)CC(CCc2ccccc2)C1` (stereo not given), the TGI in test [1], in test [2], in test [4], in test [5], in test [6] and in test [7] was greater than 100 µM throughout. Moreover, the TGI in test [8], in [9], in test [10] and in [11] was greater than 100 µM throughout.
In the case of `Cc1cn([C@@H]2C[C@](C)(CO)N(C)O2)c(=O)[nH]c1=O`, the TGI in test [1], in [2], in test [3], in [4], in test [5] and in [6] was greater than 100 µM throughout. The TGI in test [8], in test [9], in test [10] and in test [11] was greater than 100 µM each time.
In the case of `COC(C[C@H]1CCCC[C@]1(O)/C(=C\CO[Si](C(C)C)(C(C)C)C(C)C)Sc1ccccc1)OC`, the TGI was 55.3 µM in [1]; greater than 100 µM in test [2]; 38.4 µM in [3]; 86.4 µM in test [4]; greater than 100 µM in test [5]; 39.6 µM in test [6]. Moreover, the TGI in test [9], in [10] and in test [11] was greater than 100 µM throughout.
Take `Nc1cc2ncnc(Nc3cccc(Br)c3)c2cn1`: the TGI in test [1], in test [2], in test [3], in test [4], in test [5] and in [7] was greater than 100 µM throughout. The TGI in [8], in [9], in [10] and in [11] was greater than 100 µM in each case.
In the case of `C/C=C\C(CC(=O)NCCc1c[nH]c2ccccc12)CC(=O)OC` (stereo not given), the TGI in [1], in test [3], in [4], in [5], in test [6] and in test [8] was greater than 100 µM throughout. Moreover, the TGI in test [9], in test [10] and in test [11] was greater than 100 µM in each case.
As for `O=C1/C(=C/c2cccs2)N=C(c2ccccc2)N1c1nc2ccccc2s1`, the TGI was 90.7 µM in [1]; 0.976 µM in test [2]; 52.2 µM in [3]; greater than 100 µM in test [5]; 17.3 µM in [6]; greater than 100 µM in [7]. The TGI in [8] is greater than 100 µM; in test [9] it was greater than 100 µM; in [10], greater than 100 µM; in test [11], 29.8 µM.
For `c1cc2c3c(c1)[C@@H]1O[C@@H]1c1cccc(c1-3)[C@@H]1O[C@H]21`, the TGI in [1] worked out at 17.2 µM; in [4], 29.6 µM; in [5], 50.1 µM; in [6], 30.1 µM; in test [9], 31.4 µM; in test [10], 32.5 µM. The same compound yielded a TGI in test [11] of 33.6 µM.
For the compound `CCn1c(O)c(C(=O)NC(C)c2ccc([N+](=O)[O-])cc2)c(=O)n(CC)c1=S` (stereo not given), the TGI in [1] is 12 µM; in test [2], 11.9 µM; in [3], 15 µM; in test [5], 5.17 µM; in [7] it was 13.4 µM; in test [8] it was 10.5 µM. Also, the TGI turned out to be 6.77 µM in [9], 13.6 µM in test [10] and 15.3 µM in test [11].
Regarding `CCOC(=O)COC1=Nc2cc(OC)c(OC)c3nc(Cl)cc(c23)C1=O`, the TGI in test [1] is 3.34 µM; in test [3], greater than 100 µM; in test [4] it was 2.71 µM; in [5], 6.37 µM; in [6], 3.25 µM; in test [7], 3.87 µM. In addition, the TGI is greater than 21.6 µM in test [8], 4.11 µM in test [9], 2.93 µM in test [10] and 6.83 µM in test [11].
As for `COc1c(-c2ccc(F)cc2)oc2cc(O)cc(O)c2c1=O`, the TGI in test [2] was 95.3 µM; in [3], greater than 100 µM; in [4] it was 61.1 µM; in test [5] it was 44.6 µM; in [6] it was 44.2 µM; in [7] it was 39.7 µM. Also, the TGI in test [8] is greater than 100 µM; in [9] it was 80.5 µM; in [10] it was 93.8 µM; in test [11], greater than 100 µM.
Take `Cc1ccc(S(=O)(=O)CC2CCCn3c2c(C#N)c2ccccc23)cc1` (stereo not given): the TGI in test [1], in [2], in test [3], in [5], in test [6] and in test [7] was greater than 100 µM each time. Also, the TGI in test [8], in test [9], in [10] and in test [11] was greater than 100 µM each time.

These data come from PubChem BioAssay (NCI).
